Our source for the Ki and Activity values is ChEMBL document CHEMBL1138942, “Inactivation of GABA transaminase by 4-acryloylphenol” (Bioorg Med Chem Lett, 2006).

pKi: −log10 of the molar value.

Test [1] in a line: (§1) Inhibition of GABA-T. More on the design: species or system Rattus norvegicus.
The species named for test [2] is Rattus norvegicus. Described as §1.

Usually pKi stands for −log10 of the Ki, conventionally taken in molar units. Low readings indicate a high Ki, high ones a low Ki. Molecule `C=CC(=O)c1ccc(O)cc1` had a pKi in test [1] of 3.33. The Activity entry in test [2] was “Time-dependent effect”.
